From patent publication US7473709B2, “11β-benzaldoxime derivatives of D-homooestra-4,9-dien-3-ones” (Bayer Schering Pharma AG, priority 2005, dated 2009)

What was measured:
[1] = biological target: T1, Glucocorticoid receptor (GR) (Rattus norvegicus, UniProt P06536); assay: Receptor binding affinity, glucocorticoid receptor (competitive binding with 3H-dexamethasone); settings: for Glucocorticoid receptor (GR) dexamethasone = 100% (relative molar binding affinity, RBA): thymus cytosol of adrenalectomized rat, tracer 3H-dexamethasone 20 nM, reference dexamethasone = 100%
T1 construct: receptors in the cytosol from animal target organs; from tissue; host or cells: thymus cytosol of adrenalectomized rat
T1 sequence (P06536 1-795): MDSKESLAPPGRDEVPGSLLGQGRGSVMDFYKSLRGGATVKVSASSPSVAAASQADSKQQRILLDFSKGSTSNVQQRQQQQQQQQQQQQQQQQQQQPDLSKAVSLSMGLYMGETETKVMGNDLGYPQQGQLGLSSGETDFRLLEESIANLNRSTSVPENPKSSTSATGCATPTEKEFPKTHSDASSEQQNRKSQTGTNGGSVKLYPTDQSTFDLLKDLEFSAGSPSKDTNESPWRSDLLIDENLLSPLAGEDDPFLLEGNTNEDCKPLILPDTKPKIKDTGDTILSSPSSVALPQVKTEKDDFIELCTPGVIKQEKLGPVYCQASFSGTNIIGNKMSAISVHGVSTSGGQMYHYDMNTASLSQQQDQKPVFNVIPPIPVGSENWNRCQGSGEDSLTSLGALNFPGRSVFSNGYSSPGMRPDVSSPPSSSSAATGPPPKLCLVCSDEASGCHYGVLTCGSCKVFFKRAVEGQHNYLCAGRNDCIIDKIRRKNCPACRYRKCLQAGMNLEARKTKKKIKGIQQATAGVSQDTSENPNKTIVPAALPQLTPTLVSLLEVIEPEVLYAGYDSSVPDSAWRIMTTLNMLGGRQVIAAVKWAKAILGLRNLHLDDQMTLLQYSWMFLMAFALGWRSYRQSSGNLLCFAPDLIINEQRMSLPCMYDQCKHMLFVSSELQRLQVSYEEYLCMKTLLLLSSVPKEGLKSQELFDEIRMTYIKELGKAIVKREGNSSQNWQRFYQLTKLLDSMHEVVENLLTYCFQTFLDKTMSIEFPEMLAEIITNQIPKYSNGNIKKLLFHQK
Protocol: (§1) The receptor binding affinity was determined by the competitive binding of a specifically binding ^3H-labelled hormone (tracer) and the test compound to receptors in the cytosol from animal target organs, with the aim of achieving receptor saturation and reaction equilibrium.
(§2) The tracer and increasing concentrations of the test compound (competitor) were coincubated with the receptor-containing cytosol fraction at 0-4° C. for 18 h. After separation of the unbound tracer with a carbon/dextran suspension, the proportion of receptor-bound tracer was measured for each concentration and the IC50 was determined from the concentration series.
(§3) The following incubation conditions were chosen for the individual receptor types:
Thymus cytosol of the adrenalectomized rat, thymi stored at −30° C.; buffer: TED. Tracer: ^3H-dexamethasone, 20 nM; reference substance: dexamethasone.

[2] = biological target: T2, Progesterone receptor (PR) (Oryctolagus cuniculus, UniProt P06186); assay: Receptor binding affinity, progesterone receptor (competitive binding with 3H-ORG 2058); settings: uterus cytosol of oestradiol-primed rabbit; tracer 3H-ORG 2058 5 nM; reference progesterone = 100%
T2 construct: receptors in the cytosol from animal target organs; from tissue; host or cells: uterus cytosol of oestradiol-primed rabbit
T2 sequence (P06186 1-930): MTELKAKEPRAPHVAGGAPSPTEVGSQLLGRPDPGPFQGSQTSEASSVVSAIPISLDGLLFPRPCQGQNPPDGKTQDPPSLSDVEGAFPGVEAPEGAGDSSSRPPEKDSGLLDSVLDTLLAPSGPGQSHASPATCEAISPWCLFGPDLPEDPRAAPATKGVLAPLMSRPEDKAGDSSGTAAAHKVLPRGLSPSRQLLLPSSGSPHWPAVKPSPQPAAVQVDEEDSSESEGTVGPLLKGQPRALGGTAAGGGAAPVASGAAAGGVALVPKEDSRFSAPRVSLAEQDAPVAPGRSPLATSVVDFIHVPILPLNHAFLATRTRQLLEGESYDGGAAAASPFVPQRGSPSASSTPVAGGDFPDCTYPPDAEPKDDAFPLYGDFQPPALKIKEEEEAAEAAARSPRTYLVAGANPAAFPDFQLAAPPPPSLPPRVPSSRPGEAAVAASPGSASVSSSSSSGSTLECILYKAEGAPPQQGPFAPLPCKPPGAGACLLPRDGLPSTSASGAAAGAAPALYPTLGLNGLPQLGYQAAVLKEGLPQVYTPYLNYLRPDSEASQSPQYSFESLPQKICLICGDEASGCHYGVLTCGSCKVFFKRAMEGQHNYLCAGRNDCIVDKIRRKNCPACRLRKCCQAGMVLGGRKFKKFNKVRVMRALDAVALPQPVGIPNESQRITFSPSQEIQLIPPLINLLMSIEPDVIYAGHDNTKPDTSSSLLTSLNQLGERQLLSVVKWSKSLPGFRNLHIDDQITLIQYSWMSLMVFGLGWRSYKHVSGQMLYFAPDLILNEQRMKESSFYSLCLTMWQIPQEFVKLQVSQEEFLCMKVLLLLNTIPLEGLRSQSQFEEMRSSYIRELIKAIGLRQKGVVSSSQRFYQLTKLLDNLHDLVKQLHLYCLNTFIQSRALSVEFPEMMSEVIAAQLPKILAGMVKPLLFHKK
Protocol: as §1, §2, §3
Uterus cytosol of the oestradiol-primed rabbit, homogenized in TED buffer (20 mM Tris/HCI, pH 7.4; 1 mM ethylenediaminetetraacetate, 2 mM dithiothreitol) containing 250 mM sucrose; kept at −30° C.

| Compound | Ratio GR/PR ([1]; ratio of RBA at GR to RBA at PR) | Glucocorticoid receptor (GR) dexamethasone = 100% (relative molar binding affinity, RBA) [1] | Progesterone receptor (PR) progesterone = 100% (relative molar binding affinity, RBA) [2] |
| --- | --- | --- | --- |
| 4-[17aβ-Methoxy-17aα-(methoxymethyl)-17a-homo-3-oxooestra-4,9-dien-11β-yl]benzaldehyde (1E)-[O-(ethylamino)carbonyl]oxime [Example 6] | 2.8 | 450% | 158% |
| CC#C[C@]1(O)CC[C@H]2[C@@H]3CCC4=CC(=O)CCC4=C3[C@@H](c3ccc(N(C)C)cc3)C[C@@]21C [RU 38486, mifepristone] | – | 683% | – |
